We go through two molecules from patent publication US20240067693A1, “POLYPEPTIDES AND USES THEREOF” (MEDIMMUNE LIMITED, priority 2020, published 2024).

The target of assay [1] is T1, human amylin receptor (calcitonin receptor co-expressed with receptor activity modifying protein, RAMP3) (hAMYR3) (Homo sapiens, UniProt O60896+P30988).
T1 construct: expressed in transfected cells
T1 sequence (P30988 25-474): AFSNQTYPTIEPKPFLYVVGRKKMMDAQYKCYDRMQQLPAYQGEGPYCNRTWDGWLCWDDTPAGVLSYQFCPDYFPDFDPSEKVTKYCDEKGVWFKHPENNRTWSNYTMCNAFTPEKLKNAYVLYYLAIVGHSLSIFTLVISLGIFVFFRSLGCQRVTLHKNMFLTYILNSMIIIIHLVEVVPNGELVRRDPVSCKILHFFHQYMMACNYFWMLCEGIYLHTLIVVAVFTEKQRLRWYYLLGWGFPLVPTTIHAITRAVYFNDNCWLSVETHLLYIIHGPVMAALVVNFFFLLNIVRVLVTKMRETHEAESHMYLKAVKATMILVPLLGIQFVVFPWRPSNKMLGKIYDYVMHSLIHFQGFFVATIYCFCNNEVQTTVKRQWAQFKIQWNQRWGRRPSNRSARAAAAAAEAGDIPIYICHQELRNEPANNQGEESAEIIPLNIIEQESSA
T1 sequence (O60896 24-148 partner): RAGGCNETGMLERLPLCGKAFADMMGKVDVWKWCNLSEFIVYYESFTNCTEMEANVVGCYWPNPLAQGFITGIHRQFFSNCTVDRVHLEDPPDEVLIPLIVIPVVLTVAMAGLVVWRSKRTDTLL
Briefly: cAMP production in 1321N1 cells with stable recombinant expression of human amylin receptor (hAMYR3). The format is cell-based. Particulars: for Ratio (selectivity hAMYR vs hCTR, ratio of EC50 values at the two receptors): EC50 hCTR / EC50 hAMYR3; for EC50: cAMP, 1321N1 cells, assay buffer with 0.1% BSA, read-out: EC50 (pM) hAMYR3. In outline: (§1)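 Receptor-expressing cells (human receptors in 1321N1, rat receptors in HEK) incubated 30 min at room temperature with peptide in HBSS/HEPES pH 7.4, 0.1% BSA, 0.5 mM IBMX. cAMP read by HTRF; EC50 from 4-parameter fit as % of maximal amylin or calcitonin response.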

In assay [2] the target is T2, human calcitonin receptor (hCTR) (Homo sapiens, UniProt P30988).
T2 construct: expressed in transfected cells
T2 sequence (P30988 25-474): T1 sequence (P30988 25-474)
The experiment in a line: cAMP production in 1321N1 cells with stable recombinant expression of human calcitonin receptor (hCTR). The format is cell-based. Particulars: cAMP, 1321N1 cells, assay buffer with 0.1% BSA; read-out: EC50 (pM) hCTR. In outline: as §1
(cAMP levels reflect the balance of adenylyl cyclase and phosphodiesterase activity.)

Numbered stars: 1 amine (or outer) side, 2 acyl side, 3 side chain; on linkers, the order of the positions; unused ones are H or OH. Bridge positions count the residues as written; N and C are the ends. Square brackets hold non-standard residues; d marks the D form. Side chains are listed from the residue outwards. Peptide text beside a SMILES is read from it. * marks the point of attachment. C18 diacid = O=C(O)CCCCCCCCCCCCCCCCC(=O)*; γGlu = O=C(O)[C@H](CCC(=O)[*:2])N[*:1]; Aib = CC(C)(N)C(=O)O

For orientation: EC50 means the concentration giving half of the maximal effect. Regarding `CC[C@H](C)[C@H](NC(=O)[C@@H]1CCCN1C(=O)CNC(=O)[C@H](Cc1ccccc1)NC(=O)[C@H](CC(N)=O)NC(=O)[C@H](CC(N)=O)NC(=O)[C@H](CO)NC(=O)[C@H](CO)NC(=O)[C@H](Cc1c[nH]cn1)NC(=O)C(C)(C)NC(=O)[C@H](CC(C)C)NC(=O)[C@H](Cc1ccccc1)NC(=O)[C@H](CC(N)=O)NC(=O)[C@H](C)NC(=O)[C@H](CC(C)C)NC(=O)[C@H](CCCNC(=N)N)NC(=O)[C@H](CCC(N)=O)NC(=O)[C@@H](NC(=O)[C@H](C)NC(=O)[C@@H]1CSSC[C@H](NC(=O)[C@H](CCCCN)NC(=O)[C@@H](N)CCCCNC(=O)CC[C@H](NC(=O)CCCCCCCCCCCCCCCCC(=O)O)C(=O)O)C(=O)N[C@@H](CC(N)=O)C(=O)N[C@@H]([C@@H](C)O)C(=O)N[C@@H](C)C(=O)N[C@@H]([C@@H](C)O)C(=O)N1)[C@@H](C)O)C(=O)NC(C)(C)C(=O)N1CCC[C@H]1C(=O)N1CCC[C@H]1C(=O)N[C@H](C(=O)N[C@@H](CC(N)=O)C(=O)N[C@H](C(=O)NCC(=O)N[C@@H](CO)C(=O)N[C@@H](CC(N)=O)C(=O)N[C@H](C(=O)N[C@@H](Cc1ccc(O)cc1)C(N)=O)[C@@H](C)O)C(C)C)[C@@H](C)O` [Peptide 95, K(γE-C18diacid)K[CNTATC]ATQRLANFL(Aib)HSSNNFGPI(Aib)PPTNVGSNTY-amide] (H-K([γGlu-C18 diacid])KCNTATCATQRLANFL[Aib]HSSNNFGPI[Aib]PPTNVGSNTY-NH2; disulfide 3-8), in assay [1], the “Ratio (selectivity hAMYR vs hCTR, ratio of EC50 values at the two receptors)” value is 2 and the EC50 is 691 pM. Besides, the concentration giving a half-maximal response (EC50) in assay [2] is 1170 pM.

In the case of `CC[C@H](C)[C@H](NC(=O)[C@@H]1CCCN1C(=O)CNC(=O)[C@H](Cc1ccccc1)NC(=O)[C@H](CC(N)=O)NC(=O)C(C)(C)NC(=O)[C@H](CO)NC(=O)[C@H](CO)NC(=O)[C@H](Cc1c[nH]cn1)NC(=O)[C@H](CCCNC(=N)N)NC(=O)[C@H](CC(C)C)NC(=O)[C@H](Cc1ccccc1)NC(=O)[C@H](CC(N)=O)NC(=O)[C@H](C)NC(=O)[C@H](CC(C)C)NC(=O)[C@H](CCCNC(=N)N)NC(=O)[C@H](CCC(N)=O)NC(=O)[C@@H](NC(=O)[C@H](C)NC(=O)[C@@H]1CSSC[C@H](NC(=O)[C@@H](N)CCCCNC(=O)CC[C@H](NC(=O)CCCCCCCCCCCCCCCCC(=O)O)C(=O)O)C(=O)N[C@@H](CC(N)=O)C(=O)N[C@@H]([C@@H](C)O)C(=O)N[C@@H](C)C(=O)N[C@@H]([C@@H](C)O)C(=O)N1)[C@@H](C)O)C(=O)N[C@@H](CC(C)C)C(=O)N1CCC[C@H]1C(=O)N1CCC[C@H]1C(=O)N[C@H](C(=O)N[C@@H](CCCNC(=N)N)C(=O)N[C@H](C(=O)NCC(=O)N[C@@H](CO)C(=O)N[C@@H](CC(N)=O)C(=O)N[C@H](C(=O)N[C@@H](Cc1ccc(O)cc1)C(N)=O)[C@@H](C)O)C(C)C)[C@@H](C)O` [Peptide 76, K(γE-C18diacid)[CNTATC]ATQRLANFLRHSS(Aib)NFGPILPPTRVGSNTY-amide] (H-K([γGlu-C18 diacid])CNTATCATQRLANFLRHSS[Aib]NFGPILPPTRVGSNTY-NH2; disulfide 2-7; N-terminus assumed), in assay [1], the “Ratio (selectivity hAMYR vs hCTR, ratio of EC50 values at the two receptors)” value is 107 and the 50% effective concentration (EC50) turned out to be 209 pM. Besides, the concentration for a half-maximal effect (EC50) in assay [2] stood at 22300 pM.
